Columns and labels:
[1] = test system: JIMT1 stem cell tumorspheres; test: Viability of JIMT1 stem cell tumorspheres (MTS assay); type: cell-based, human; conditions: 6 days
Description: FIG. 8. Effect of β-O-Gln, α-O-Gln, β-C-Gln and ET-18-OCH3 on the viability of JIMT1 stem cell tumorspheres. BT-474 cancer stem cells were grown for 7 days in ultra low adhesion 6-well plates. The tumorspheres formed were harvested, trypsinised and cell numbers were determined. Equal numbers of cells were dispersed into 48-well non-treated plates in mammocult medium and incubation was under static conditions. Wells with only medium but no cells were treated in an identical manner to serve as blanks. After spheres were formed, O-Gln, C-Gln or ET-18-OCH3 (0, 10, 20, 30 μM) were added and incubation was for a total of 6 days. At the end of the incubation, the MTS reagent was added to each well and the plates were mixed in a nutator in a 5% CO2 incubator for 4 h. The absorbance of each well was read at 470 nm. The results are the means±standard deviation of 4 independent determinations.
(§1) Cell viability assay: Cell viability was determined by the Cell Titre 96 Aqueous One solution proliferation assay ((MTS assay; Promega) according to the instructions of the manufacturer.
The viability of cells in spheroids incubated with 20 or 30 μM ET-18-OCH3 was between 30-40% of controls.

[2] = test system: BT-474 stem cell tumorspheres; test: Viability of BT-474 stem cell tumorspheres (MTS assay); type: cell-based, human; conditions: 6 days
Description: FIG. 6. Effect of β-O-Gln, α-O-Gln, β-C-Gln and ET-18-OCH3 on the viability of BT-474 stem cell tumorspheres. BT-474 cancer stem cells were grown for 7 days in ultra low adhesion 6 well plates. The tumorspheres formed were harvested, trypsinised and cell numbers were determined. Equal numbers of cells were dispersed into 48-well plates in mammocult medium and incubation was under static conditions. Wells with only medium but no cells were treated in an identical manner to serve as blanks. After spheres were formed, β-O-Gln, α-O-Gln, β-C-Gln or ET-18-OCH3 (0, 10, 20, 30 μM) were added and incubation was for a total of 6 days. At the end of the incubation, the MTS reagent was added to each well and the plates were rotated on a Nutator mixer in a 5% CO2 incubator for 4 h. The absorbance of each well was read at 470 nm. The results are the means±standard deviation of 4 independent determinations.
as §1
The viability of the material at the end of the incubation was determined using the MTS assay. […] In cells incubated with 10 μM of β-C-Gln, 90% of the cells were not viable. […] In contrast, in experiments with ET-18-OCH3, 10 or 20 μM ET-18-OCH3 had little effect on the viability of BT-474 spheroids and at a concentration of 30 μM viability was around 45% relative to controls. The results of the integrity studies correlate well with the viability studies.
We also investigated the effect of α-O-Galn, β-O-Galn or α-O-Mann on the viability of BT-474 spheroids. The spheroids were incubated with the compounds for 6 days and the viability was assessed by the MTS assay. […] Viability was down to around 10% at 10 μM concentration of the compound. […] At a concentration of 30 μM a significant proportion (26-32%) of the BT-474 cancer stem cells were still viable. The cytotoxic efficacy of GAELs is dependent on the type of sugar moiety and the anomeric form in some instances.

## CCCCCCCCCCCCCCCCOC[C@H](CO[C@@H]1O[C@H](CO)[C@@H](O)[C@H](O)[C@H]1N)OC [β-O-Gln, 1-O-hexadecyl-2-O-methyl-3-O-(2′-amino-2′-deoxy-β-D-glucopyranosyl)-sn-glycerol]
[1]; 10 μM
  loss of viability: 90%
[1]; 20 or 30 μM
  loss of viability: Complete loss of viability
[2]; 10 μM
  loss of viability: about 60%
[2]; 20 or 30 μM
  loss of viability: total loss of viability
